Laboratory results: patent publication US20230265151A1, “GIP/GLP1 CO-AGONIST COMPOUNDS” (priority 2020, published 2023)
Read-outs that look alike come from different tables or passages of the source.

Legend:
hGCGR = target: T1, hGCGR (Homo sapiens, UniProt P47871); test: Functional cAMP formation (HTRF) in HEK-293 clonal cells expressing hGCGR, 0.1% bovine casein, without or with 1.0% human serum albumin; type: cell-based; conditions: cAMP, 37° C.
T1 construct: expressed in transfected cells
How it was run: (§1)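 Cells were stimulated with peptide for 30 min at 37° C, then lysed in buffer carrying cAMP-d2 and anti-cAMP Eu3+-cryptate for a competitive HTRF read after at least 60 min at room temperature. The 665/620 nm ratio was converted to nM cAMP against a standard curve.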

[1] = target: T2, human GIP receptor (hGIPR) (Homo sapiens, UniProt P48546); test: [125I]-GIP binding, SPA with membranes of CHO cells expressing hGIPR
T2 construct: expressed in transfected cells; crude membranes
T2 sequence (P48546 22-466): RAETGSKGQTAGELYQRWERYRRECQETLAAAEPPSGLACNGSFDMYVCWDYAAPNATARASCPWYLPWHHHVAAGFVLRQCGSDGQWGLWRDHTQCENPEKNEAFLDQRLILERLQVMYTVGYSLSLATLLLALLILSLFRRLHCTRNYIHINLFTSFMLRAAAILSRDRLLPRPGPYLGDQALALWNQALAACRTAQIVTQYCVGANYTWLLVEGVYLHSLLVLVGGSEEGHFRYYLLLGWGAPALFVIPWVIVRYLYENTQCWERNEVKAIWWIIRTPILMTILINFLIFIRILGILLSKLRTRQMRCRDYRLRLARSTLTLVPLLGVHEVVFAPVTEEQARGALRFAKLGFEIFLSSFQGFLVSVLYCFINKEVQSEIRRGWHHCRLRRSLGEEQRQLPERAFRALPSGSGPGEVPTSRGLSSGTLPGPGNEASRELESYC

hGIPR = target: T3, hGIPR (Homo sapiens, UniProt P48546); test: Functional cAMP formation (HTRF) in HEK-293 clonal cells expressing hGIPR, 0.1% bovine casein, without or with 1.0% human serum albumin; type: cell-based; conditions: for Emax: percent of maximal response to GIP(1-42)NH2; for EC50: cAMP
T3 construct: expressed in transfected cells
T3 sequence (P48546 22-466): T2 sequence (P48546 22-466)
How it was run: as §1

hGLP-1R = hGLP-1R (Homo sapiens, UniProt P43220); test: Functional cAMP formation (HTRF) in HEK-293 clonal cells expressing hGLP-1R, 0.1% bovine casein, without or with 1.0% human serum albumin; type: cell-based; design: expressed in transfected cells; conditions: for Emax: percent of maximal response to GLP-1(7-36)NH2; for EC50: cAMP
Sequence of hGLP-1R (P43220 24-463): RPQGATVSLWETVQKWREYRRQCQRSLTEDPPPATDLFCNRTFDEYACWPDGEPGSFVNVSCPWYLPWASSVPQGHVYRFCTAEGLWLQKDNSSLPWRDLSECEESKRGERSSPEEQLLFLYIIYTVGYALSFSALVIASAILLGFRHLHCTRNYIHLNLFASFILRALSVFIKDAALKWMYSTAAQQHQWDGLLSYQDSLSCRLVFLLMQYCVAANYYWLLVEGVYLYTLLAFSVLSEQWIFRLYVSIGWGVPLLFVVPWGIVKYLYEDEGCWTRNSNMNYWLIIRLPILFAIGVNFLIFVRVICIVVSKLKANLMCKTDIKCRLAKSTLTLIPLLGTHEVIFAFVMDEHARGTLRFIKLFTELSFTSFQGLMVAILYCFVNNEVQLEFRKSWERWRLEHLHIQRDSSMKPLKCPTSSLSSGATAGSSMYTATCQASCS
How it was run: as §1

[2] = 0.1% bovine casein (no human serum albumin), geometric mean, read-out: hGCGR EC50, nM (SEM, n)
[3] = 0.1% bovine casein and 1.0% human serum albumin, geometric mean (SEM, n), read-out: hGCGR EC50, nM (SEM, n)
[4] = human GIPR, geometric mean (SEM, n), read-out: Binding Affinity Ki, nM (SEM, n) hGIPR
[5] = HEK293, cAMP, 37° C., 0.1% bovine casein, arithmetic mean, read-out: hGIPR Emax, % ± SEM
[6] = 37° C., 0.1% bovine casein (no human serum albumin), geometric mean, read-out: hGIPR EC50, nM (SEM, n)
[7] = 37° C., 0.1% bovine casein (no human serum albumin), geometric mean, read-out: hGLP-1R EC50, nM (SEM, n)
[8] = hGCGR EC50, nM (SEM, n), 0.1% bovine casein (no human serum albumin), geometric mean
[9] = hGCGR EC50, nM (SEM, n), 0.1% bovine casein and 1.0% human serum albumin, geometric mean (SEM, n)
[10] = HEK293, read-out: hGIPR Emax, % ± SEM, cAMP, 37° C., 0.1% bovine casein and 1.0% human serum albumin
[11] = hGIPR EC50, nM (SEM, n), 37° C., 0.1% bovine casein (no human serum albumin), geometric mean
[12] = hGLP-1R EC50, nM (SEM, n), 37° C., 0.1% bovine casein (no human serum albumin), geometric mean

T1 sequence (P47871 26-477): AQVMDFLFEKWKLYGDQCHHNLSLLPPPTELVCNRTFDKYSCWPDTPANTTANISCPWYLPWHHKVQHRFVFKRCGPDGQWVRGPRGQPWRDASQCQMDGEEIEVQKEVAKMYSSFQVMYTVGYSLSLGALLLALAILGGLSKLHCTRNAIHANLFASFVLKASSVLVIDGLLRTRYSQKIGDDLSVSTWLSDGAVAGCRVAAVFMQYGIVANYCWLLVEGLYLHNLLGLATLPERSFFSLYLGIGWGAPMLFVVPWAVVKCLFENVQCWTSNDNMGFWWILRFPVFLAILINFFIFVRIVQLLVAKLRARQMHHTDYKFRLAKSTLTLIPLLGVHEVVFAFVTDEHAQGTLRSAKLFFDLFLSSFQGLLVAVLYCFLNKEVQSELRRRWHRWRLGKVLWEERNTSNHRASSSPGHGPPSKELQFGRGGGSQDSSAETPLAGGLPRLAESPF

CCCCCCCCCCCC(=O)N[C@@H](CCC(=O)NCCOCCOCC(=O)NCCOCCOCC(=O)NCCOCCOCC(=O)NCCCC[C@H](NC(=O)[C@H](CCCN)NC(=O)[C@H](CC(=O)O)NC(=O)[C@H](CC(C)C)NC(=O)[C@](C)(CC(C)C)NC(=O)[C@@H](NC(=O)C(C)(C)NC(=O)[C@H](CCCCNC(=O)COCCOCCNC(=O)COCCOCCNC(=O)COCCOCCNC(=O)CC[C@H](NC(=O)CCCCCCCCCCC)C(=O)O)NC(=O)[C@H](CC(=O)O)NC(=O)[C@H](CO)NC(=O)[C@@H](NC(=O)[C@](C)(Cc1ccccc1F)NC(=O)[C@@H](NC(=O)CNC(=O)[C@H](CCC(=O)O)NC(=O)C(C)(C)NC(=O)[C@@H](N)Cc1ccc(O)cc1)[C@@H](C)O)[C@@H](C)O)[C@@H](C)CC)C(=O)N[C@@H](C)C(=O)N[C@@H](CCC(N)=O)C(=O)NC(C)(C)C(=O)N[C@@H](CCC(=O)O)C(=O)N[C@@H](Cc1ccccc1)C(=O)N[C@H](C(=O)N[C@H](CCC(=O)O)C(=O)N[C@@](C)(Cc1ccc(O)cc1)C(=O)N[C@@H](CC(C)C)C(=O)N[C@H](C(=O)N[C@@H](CCC(=O)O)C(=O)NCC(=O)NCC(=O)N1CCC[C@H]1C(=O)N[C@@H](CO)C(=O)N[C@@H](CO)C(=O)NCC(=O)N[C@@H](C)C(=O)N1CCC[C@H]1C(=O)N1CCC[C@H]1C(=O)N1CCC[C@H]1C(=O)N[C@@H](CO)C(N)=O)[C@@H](C)CC)[C@@H](C)CC)C(=O)O [Example 421]
EC50 (hGCGR; [2]): > 9950 nM | EC50 (hGCGR; [3]): > 9950 nM | Ki [1, 4]: 0.0245 nM | Emax (hGIPR; HEK293, cAMP, 37° C., 0.1% bovine casein and 1.0% human serum albumin, read-out: hGIPR Emax, % ± SEM): 98% | Emax (hGIPR; [5]): 100% | EC50 (hGIPR; [6]): 0.00618 nM | Emax (hGLP-1R; HEK293, cAMP, 37° C., 0.1% bovine casein and 1.0% human serum albumin, read-out: hGLP-1R Emax, % ± SEM): 105% | EC50 (hGLP-1R; [7]): 0.057 nM

CC[C@H](C)[C@H](NC(=O)[C@H](CC(C)C)NC(=O)[C@](C)(Cc1ccc(O)cc1)NC(=O)[C@H](CCCCNC(=O)COCCOCCNC(=O)COCCOCCNC(=O)CC[C@H](NC(=O)CCCCCCCCCOc1ccc(C(=O)O)cc1)C(=O)O)NC(=O)[C@@H](NC(=O)[C@H](Cc1ccccc1)NC(=O)[C@H](CCCN)NC(=O)C(C)(C)NC(=O)[C@H](CCC(N)=O)NC(=O)[C@H](C)NC(=O)[C@H](CCC(N)=O)NC(=O)[C@H](CCCN)NC(=O)[C@H](CC(=O)O)NC(=O)[C@H](CC(C)C)NC(=O)[C@](C)(CC(C)C)NC(=O)[C@@H](NC(=O)C(C)(C)NC(=O)[C@H](Cc1ccncc1)NC(=O)[C@H](CC(=O)O)NC(=O)[C@H](CO)NC(=O)[C@@H](NC(=O)[C@](C)(Cc1ccccc1F)NC(=O)[C@@H](NC(=O)CNC(=O)[C@H](CCC(=O)O)NC(=O)C(C)(C)NC(=O)[C@@H](N)Cc1ccc(O)cc1)[C@@H](C)O)[C@@H](C)O)[C@@H](C)CC)[C@@H](C)CC)C(=O)N[C@@H](CCCCNC(=O)COCCOCCNC(=O)COCCOCCNC(=O)CC[C@H](NC(=O)CCCCCCCCCOc1ccc(C(=O)O)cc1)C(=O)O)C(=O)NCC(=O)NCC(=O)N1CCC[C@H]1C(=O)N[C@@H](CO)C(=O)N[C@@H](CO)C(=O)NCC(=O)N[C@@H](C)C(=O)N1CCC[C@H]1C(=O)N1CCC[C@H]1C(=O)N1CCC[C@H]1C(=O)N[C@@H](CO)C(N)=O [Example 440]
EC50 (hGCGR; [8]): > 10100 nM | EC50 (hGCGR; [9]): > 10100 nM | Ki [1]: 0.0312 nM | Emax (hGIPR; [10]): 90.3% | EC50 (hGIPR; [11]): 0.0104 nM | EC50 (hGLP-1R; [12]): 0.18 nM | EC50 (hGLP-1R; hGLP-1R EC50, nM (SEM, n), 37° C., 0.1% bovine casein and 1.0% human serum albumin, geometric mean (SEM, n)): 2.74 nM

CC[C@H](C)[C@H](NC(=O)[C@H](CC(C)C)NC(=O)[C@](C)(Cc1ccc(O)cc1)NC(=O)[C@H](CCCCNC(=O)COCCOCCNC(=O)COCCOCCNC(=O)CC[C@H](NC(=O)CCCCCCCCCCCCC(=O)O)C(=O)O)NC(=O)[C@@H](NC(=O)[C@H](Cc1ccccc1)NC(=O)[C@H](CCCN)NC(=O)C(C)(C)NC(=O)[C@H](CCC(N)=O)NC(=O)[C@H](C)NC(=O)[C@H](CCC(N)=O)NC(=O)[C@H](CCCN)NC(=O)[C@H](CC(=O)O)NC(=O)[C@H](CC(C)C)NC(=O)[C@](C)(CC(C)C)NC(=O)[C@@H](NC(=O)C(C)(C)NC(=O)[C@@H](NC(=O)[C@H](CC(=O)O)NC(=O)[C@H](CO)NC(=O)[C@@H](NC(=O)[C@](C)(Cc1ccccc1F)NC(=O)[C@@H](NC(=O)CNC(=O)[C@H](CCC(=O)O)NC(=O)C(C)(C)NC(=O)[C@@H](N)Cc1ccc(O)cc1)[C@@H](C)O)[C@@H](C)O)C(C)C)[C@@H](C)CC)[C@@H](C)CC)C(=O)N[C@@H](CCCCNC(=O)COCCOCCNC(=O)COCCOCCNC(=O)CC[C@H](NC(=O)CCCCCCCCCCCCC(=O)O)C(=O)O)C(=O)NCC(=O)NCC(=O)N1CCC[C@H]1C(=O)N[C@@H](CO)C(=O)N[C@@H](CO)C(=O)NCC(=O)N[C@@H](C)C(=O)N1CCC[C@H]1C(=O)N1CCC[C@H]1C(=O)N1CCC[C@H]1C(=O)N[C@@H](CO)C(N)=O [Example 448]
EC50 (hGCGR; [2]): > 9950 nM | EC50 (hGCGR; [3]): > 9950 nM | Ki [1, 4]: 0.0314 nM | Emax (hGIPR; [5]): 105% | EC50 (hGIPR; [6]): 0.0164 nM | EC50 (hGIPR; 37° C., 0.1% bovine casein and 1.0% human serum albumin, geometric mean (SEM, n), read-out: hGIPR EC50, nM (SEM, n)): 1.41 nM | EC50 (hGLP-1R; [7]): 0.157 nM

CC[C@H](C)[C@H](NC(=O)[C@H](CC(C)C)NC(=O)[C@](C)(Cc1ccc(O)cc1)NC(=O)[C@H](CCCCNC(=O)CCCCCNC(=O)COCCOCCNC(=O)CC[C@H](NC(=O)CCCCCCCCCOc1ccc(C(=O)O)cc1)C(=O)O)NC(=O)[C@@H](NC(=O)[C@H](Cc1ccccc1)NC(=O)[C@H](CCCN)NC(=O)C(C)(C)NC(=O)[C@H](CCC(N)=O)NC(=O)[C@H](C)NC(=O)[C@H](CCC(N)=O)NC(=O)[C@H](CCCN)NC(=O)[C@H](CC(=O)O)NC(=O)[C@H](CC(C)C)NC(=O)[C@](C)(CC(C)C)NC(=O)[C@@H](NC(=O)C(C)(C)NC(=O)[C@H](Cc1ccncc1)NC(=O)[C@H](CC(=O)O)NC(=O)[C@H](CO)NC(=O)[C@@H](NC(=O)[C@](C)(Cc1ccccc1F)NC(=O)[C@@H](NC(=O)CNC(=O)[C@H](CCC(=O)O)NC(=O)C(C)(C)NC(=O)[C@@H](N)Cc1ccc(O)cc1)[C@@H](C)O)[C@@H](C)O)[C@@H](C)CC)[C@@H](C)CC)C(=O)N[C@@H](CCCCNC(=O)CCCCCNC(=O)COCCOCCNC(=O)CC[C@H](NC(=O)CCCCCCCCCOc1ccc(C(=O)O)cc1)C(=O)O)C(=O)NCC(=O)NCC(=O)N1CCC[C@H]1C(=O)N[C@@H](CO)C(=O)N[C@@H](CO)C(=O)NCC(=O)N[C@@H](C)C(=O)N1CCC[C@H]1C(=O)N1CCC[C@H]1C(=O)N1CCC[C@H]1C(=O)N[C@@H](CO)C(N)=O [Example 455]
EC50 (hGCGR; [8]): > 9950 nM | EC50 (hGCGR; [9]): > 9950 nM | Ki [1]: 0.0143 nM | Emax (hGIPR; [10]): 91.8% | EC50 (hGIPR; [11]): 0.0146 nM | Emax (hGLP-1R; HEK293, read-out: hGLP-1R Emax, % ± SEM, cAMP, 37° C., 0.1% bovine casein, arithmetic mean): 117% | EC50 (hGLP-1R; [12]): 0.219 nM
